Results reported in patent publication US10888561B2, “CGRP receptor antagonists” (Heptares Therapeutics Limited, priority 2015, dated 2021).

Tests used:
[1] = Thermodynamic solubility profiling; type: physicochemical; details: PBS buffer pH 7.4, 24 h at rt
Procedure: Thermodynamic solubility profiling. A 50 mM DMSO stock solution of test compound was prepared, and from this, a working solution of 1 mM was prepared by dilution with DMSO. The UV absorbance of working solution was scanned from 220 nm to 1000 nm to identify the wavelength maxima of test compound. The 1 mM working solution was then serially diluted in DMSO to different concentrations to determine linearity/calibration curve. […] The resulting solution was then kept on a RotoSpin shaker at 50 rpm for 24 h at rt before the solution was filtered using 0.45 micron PVDF injector filters in order to remove the insoluble fraction of the compound. Subsequently, 150 uL of the filtrate is taken for quantification using a UV spectrophotometer, acquiring the optical density of standard solutions and test compound at the same wavelength maxima. From the optical density of test compound the thermodynamic solubility is calculated using the linearity/calibration curve and expressed as micromolar (μM). Solubility profiles of certain compounds of the invention are detailed in Table 7.

CGRP receptor = CGRP receptor (Homo sapiens (Human), UniProt O60894+Q16602); details: literature; cited from earlier work
migraine = details: humans, at 24 h after intravenous infusion of a 2.5 mg dose; cited from earlier work

Chain of CGRP receptor (Q16602 23-461): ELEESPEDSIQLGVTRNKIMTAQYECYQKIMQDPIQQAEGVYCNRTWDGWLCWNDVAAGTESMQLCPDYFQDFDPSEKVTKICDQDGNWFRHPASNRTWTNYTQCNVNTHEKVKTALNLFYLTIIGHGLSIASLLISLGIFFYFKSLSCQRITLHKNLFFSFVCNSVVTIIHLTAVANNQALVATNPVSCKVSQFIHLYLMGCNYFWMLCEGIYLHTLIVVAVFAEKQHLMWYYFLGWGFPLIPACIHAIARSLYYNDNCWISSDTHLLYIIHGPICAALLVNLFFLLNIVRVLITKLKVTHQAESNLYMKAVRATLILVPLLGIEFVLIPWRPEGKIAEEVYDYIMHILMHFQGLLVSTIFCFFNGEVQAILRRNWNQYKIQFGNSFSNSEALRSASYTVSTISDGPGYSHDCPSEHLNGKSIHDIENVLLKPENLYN
Chain of CGRP receptor (O60894 27-148): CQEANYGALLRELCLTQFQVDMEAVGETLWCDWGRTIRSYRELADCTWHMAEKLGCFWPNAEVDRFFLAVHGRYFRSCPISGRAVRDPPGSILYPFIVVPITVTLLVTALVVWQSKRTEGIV

Row | SMILES | Thermodynamic solubility (μM) pH 7.4 [1] | kinetics at the CGRP receptor (CGRP receptor) | headache-free rate (migraine)
1 | Cc1cc(C[C@@H](NC(=O)N2CCC(N3Cc4ccccc4NC3=O)CC2)C(=O)N[C@@H](CC2CCNCC2)C(=O)N2CCN(c3ccncc3)CC2)cc2cn[nH]c12 [Example 10, N-[(2R)-3-(7-methyl-1H-indazol-5-yl)-1-oxo-1-({(2S) (2S)-1-oxo-3-(piperidin-4-yl)-1-[4-(pyridin-4-yl)piperazin-1-yl]propan-2-yl}amino)propan-2-yl]-4-(2-oxo-1,4-dihydroquinazolin-3(2H)-yl)piperidine-1-carboxamide] | 1205 μM |  | 
2 | O=C(CN1C(=O)C2(CCCC2)NC[C@H]1c1cc(F)cc(F)c1)Nc1ccc2c(c1)C[C@@]1(C2)C(=O)Nc2ncccc21 [MK-3207] |  | relatively slow dissociation | 
3 | NCCCC[C@H](NC(=O)[C@@H](Cc1cc(Br)c(O)c(Br)c1)NC(=O)N1CCC(N2Cc3ccccc3NC2=O)CC1)C(=O)N1CCN(c2ccncc2)CC1 [olcegepant] |  | slow kinetics | 47%
